Results taken from patent US20240389587A1, “COMPOSITIONS AND METHODS FOR CONTROLLING PHYTOPATHOGENIC INFECTIONS” (INSTITUT NATIONAL DE RECHERCHE POUR L'AGRICULTURE, …, priority 2021, published 2024).

These compounds were tested against T1, IRE1 (Saccharomyces cerevisiae, UniProt P32361) (assay: IRE1 inhibitors screening (inhibition of transcriptional activator HAC1 in yeast)). Details: not given.
T1 construct: endogenous in cells
Type: cell-based
Excerpt: A series of natural products were screened for their capacity to inhibit the UPR pathway via the inhibition of IRE1 in an in vitro screening test, based inhibition of the transcriptional activator HAC1 in Saccharomyces cerevisiae (the IRE1 protein is the ‘sole effector of the UPR pathway in fungi).

T1 sequence (P32361 19-1115): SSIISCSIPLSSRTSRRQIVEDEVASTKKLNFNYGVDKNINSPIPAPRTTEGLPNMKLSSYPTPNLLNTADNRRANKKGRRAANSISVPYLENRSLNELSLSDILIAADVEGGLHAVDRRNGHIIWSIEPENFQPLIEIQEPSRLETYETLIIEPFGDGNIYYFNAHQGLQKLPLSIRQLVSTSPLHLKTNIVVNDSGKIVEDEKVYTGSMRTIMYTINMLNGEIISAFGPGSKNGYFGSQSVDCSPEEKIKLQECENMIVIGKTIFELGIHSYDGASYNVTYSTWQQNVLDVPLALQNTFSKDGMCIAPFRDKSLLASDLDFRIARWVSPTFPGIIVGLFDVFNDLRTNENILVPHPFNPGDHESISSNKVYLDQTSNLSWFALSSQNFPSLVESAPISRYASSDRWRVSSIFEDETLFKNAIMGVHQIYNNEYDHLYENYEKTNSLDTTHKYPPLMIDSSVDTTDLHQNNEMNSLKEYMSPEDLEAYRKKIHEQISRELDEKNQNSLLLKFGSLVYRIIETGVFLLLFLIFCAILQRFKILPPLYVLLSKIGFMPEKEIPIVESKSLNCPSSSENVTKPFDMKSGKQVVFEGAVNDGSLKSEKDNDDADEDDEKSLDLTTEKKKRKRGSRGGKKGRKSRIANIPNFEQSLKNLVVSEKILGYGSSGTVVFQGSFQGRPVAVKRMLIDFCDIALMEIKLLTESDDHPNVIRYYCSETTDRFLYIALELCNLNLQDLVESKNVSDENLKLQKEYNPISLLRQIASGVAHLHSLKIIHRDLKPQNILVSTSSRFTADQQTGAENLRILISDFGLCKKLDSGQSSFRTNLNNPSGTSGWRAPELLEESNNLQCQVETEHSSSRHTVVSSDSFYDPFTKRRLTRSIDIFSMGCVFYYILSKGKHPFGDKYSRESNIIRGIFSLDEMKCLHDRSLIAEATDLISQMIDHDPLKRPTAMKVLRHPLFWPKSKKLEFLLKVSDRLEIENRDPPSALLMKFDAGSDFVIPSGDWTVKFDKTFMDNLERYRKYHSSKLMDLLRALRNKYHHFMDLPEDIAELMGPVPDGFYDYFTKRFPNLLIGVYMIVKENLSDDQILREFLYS

Compound | μ (% activation) ± σ [%] | IRE1 inhibition (in words) | IC50 [µM]
COc1cc2c(cc1O)C1Cc3cc(OC)c(OC)cc3C(C2)N1C (single isomer, unassigned; (-)) [(−)-Norargemonine] | 101.7 ± 3.6 |  | 
O=c1cc(-c2ccccc2)oc2cc(O)cc(O)c12 [Chrysine] | 91.7 ± 1.4 |  | 
O=C(/C=C/c1ccc(O)c(O)c1)OC/C=C/c1ccccc1 [Cinnamyl caffeate, [(E)-3-phenylprop-2-enyl] (E)-3-(3,4-dihydroxyphenyl)prop-2-enoate] |  | inhibit IRE1 in a micromolar scale | 
C=C(CO)C(=O)O[C@H]1CC(=C)[C@@H]2C[C@H](O)C(=C)[C@@H]2[C@H]2OC(=O)C(=C)[C@@H]21 [Cynaropicrin] | 105.6 ± 0.7 |  | 
O=C1C=CC(=O)c2c(O)cccc21 [Juglone, 5-hydroxy-1,4-naphthalenedione] |  | inhibit IRE1 in a micromolar scale | 12.8
CC(Cc1ccccc1)NCCCc1ccccc1 (stereo not shown) [N-(3-Phenyl-n-propyl)-1-phenyl-2-aminopropane] | 102.6 ± 1 |  | 
Oc1cc(O)c2c(c1)O[C@H](c1ccc(O)c(O)c1)[C@H](O)[C@H]2c1c(O)cc(O)c2c1O[C@H](c1ccc(O)c(O)c1)[C@H](O)C2 [Procyanidin B2] | 101.6 ± 1 |  | 
C[C@@H]1O[C@@H](Oc2c(-c3ccc(O)c(O)c3)oc3cc(O)cc(O)c3c2=O)[C@H](O)[C@H](O)[C@H]1O [Quercitrin] | 102 ± 2.4 |  | 
C[n+]1cc2c3c(ccc2c2ccc4cc5c(cc4c21)OCO5)OCO3 [Sanguinarine] | 91.1 ± 3.1 |  | 
COc1cc(C[C@H]2C(=O)OC[C@@H]2Cc2ccc3c(c2)OCO3)cc(OC)c1OC [Yatein] | 100.7 ± 2.5 |  | 

Same assay, conditions: in vitro screening; IRE1 activity of less than 80% = retained as IRE1 inhibitor

Compound | μ (% activation) ± σ [%]
2-Deprenyl-rheediaxanthone B | 97.3 ± 4.2
5,6-O-dimethyl-2-deprenylrheediaxanthone | 100.3 ± 1.6
COc1cc2c(cc1OC)C1Cc3ccc(OC)c(OC)c3C(=O)N1CC2 (racemic) [(±)-8-Oxotetrahydropalmatine] | 99.6 ± 2.8
O=C1c2c(O)cc(O)cc2O[C@@H](c2ccc(O)cc2)[C@@H]1c1c(O)cc(O)c2c(=O)cc(-c3ccc(O)cc3)oc12 (racemic) [(±)-Volkensiflavone] | 95.8 ± 0.5
O=c1c2ccc(O)c(O)c2oc2cc(O)cc(O)c12 [1,3,5,6-tétra-hydroxy-xanthone] | 103.9 ± 0.7
CC(C)=CCc1c(O)cc2oc3ccc(O)cc3c(=O)c2c1O [1,3,7-trihydroxy-2-prenylxanthone] | 89.7 ± 0.6
COc1c(O)ccc2oc3ccccc3c(=O)c12 [1-methoxy-2-hydroxy-xanthone] | 97.9 ± 3.6
O=c1c2cc(O)ccc2oc2c(O)c(O)c(O)c(O)c12 [2,5,6,7,8-Pentahydroxyxanthone] | 102.3 ± 0.7
COc1c(OC)c(O)c2c(=O)c(O)c(-c3ccccc3)oc2c1OC [3,5-dihydroxy-6,7,8-trimethoxyflavone] | 98.3 ± 2.4
Cc1cc(=O)oc2cc(O)cc(O)c12 [5,7-dihydroxy-4-methyl coumarin] | 104.0 ± 1.4
COc1c(O)ccc2c(=O)c3c(O)cc4c(c3oc12)C(C)(C)C(C)O4 (stereo not shown) [5-O-methyl-2-deprenylrheediaxanthone B] | 91.6 ± 3.3
CC(C)=CCc1c(O)c(CC=C(C)C)c2oc3c(O)cccc3c(=O)c2c1O [8-deoxygartanin] | 96.6 ± 5.7
COc1c(O)cc2oc3cc4c(c(O)c3c(=O)c2c1CC=C(C)C)C=CC(C)(C)O4 [9-hydroxycalabaxanthone] | 103.5 ± 2.8
C[C@H](C/C=C/C(C)(C)O)[C@@H]1CC[C@]2(C)C3=C(CC[C@@]12C)[C@@]1(C)CC[C@H](O)C(C)(C)C1CC3 (stereo partly drawn) [(20R,23E)-Eupha-8,23-diene-3b,25-diol] | 100.6 ± 2.5
O=c1cc(-c2ccc(O)c(-c3c(O)cc(O)c4c(=O)cc(-c5ccc(O)cc5)oc34)c2)oc2cc(O)cc(O)c12 [Amentoflavone] | 101.8 ± 2.3
O=C(/C=C/c1ccc(O)c(O)c1)OCc1ccccc1 [Benzyl caffeate] | 104.6 ± 4.8
CC(C)=CCC/C(C)=C/COc1c2ccoc2cc2oc(=O)ccc12 [Bergamotine] | 103.5 ± 1.6
CC(C)=CCc1c(O)cc2oc3ccc4c(c3c(=O)c2c1O)C=CC(C)(C)O4 [Calothwaitesixanthone] | 104.6 ± 1.4
C=CC(C)(C)c1c2c(c(O)c3c(=O)c4cccc(O)c4oc13)C=CC(C)(C)O2 [Caloxanthone C] | 104.2 ± 2.8
COc1ccc2cc1Oc1ccc(cc1)C[C@H]1c3c(cc4c(c3Oc3cc5c(cc3OC)CCN(C)[C@@H]5C2)OCO4)CCN1C [Cepharantine] | 102.2 ± 4.0
COc1ccc2c(c[n+](C)c3c4cc5c(cc4ccc23)OCO5)c1OC [Chelerythrine] | 103.2 ± 3.6
O=C(/C=C/c1ccc(O)c(O)c1)OC/C=C/c1ccccc1 [Cinnamyl caffeate, [(E)-3-phenylprop-2-enyl] (E)-3-(3,4-dihydroxyphenyl)prop-2-enoate] | 73.4 ± 1.7
COc1ccc2c(c1O)Oc1c(O)ccc3c1[C@H](C2)N(C)CC3 [Claviculine] | 100.3 ± 2.5
COc1cc(/C=C/C(=O)CC(=O)/C=C/c2ccc(O)c(OC)c2)ccc1O [Curcumine] | 177.3 ± 10.3
CC(C)=C/C=C/C(C)=C/[C@H]1CC[C@@H]2[C@@]3(C)CC[C@H](O)C(C)(C)[C@@H]3CC[C@@]2(C)[C@@]12COC(=O)C2 [Ebelin lactone] | 102.5 ± 0.9
Cc1cc(O)c2c(c1)C(=O)c1cc(O)cc(O)c1C2=O [Emodin] | 104.5 ± 3.1

Compound | μ (% activation) ± σ [%]
Oc1cc(O)c2c(c1)O[C@H](c1ccc(O)c(O)c1)[C@H](O)C2 [Epicatechin] | 101.4 ± 0.4
CC(C)=CCC[C@@H](C)[C@@H]1CC[C@]2(C)C3=C(CC[C@@]12C)[C@@]1(C)CC[C@H](O)C(C)(C)[C@@H]1CC3 [Euphol] | 105.3 ± 0.7
C[C@H]1C(=O)CC[C@@H]2[C@]1(C)CC[C@H]1[C@@]2(C)CC[C@@]2(C)[C@@H]3CC(C)(C)CC[C@]3(C)CC[C@]12C [Friedelin] | 104.6 ± 0.7
CC(C)=CCc1c(O)cc2oc3c(CC=C(C)C)c(O)c(O)c(CC=C(C)C)c3c(=O)c2c1O [Garcinon E] | 101.6 ± 3.9
CC(C)=CCc1c(O)c(CC=C(C)C)c2oc3c(O)ccc(O)c3c(=O)c2c1O [Gartanin] | 95.1 ± 5.5
CC1=C[C@H]2c3c(c(O)c(O)c4oc5cc(O)cc(O)c5c(=O)c34)[C@H](c3cc(O)c(O)c4oc5cc(O)cc(O)c5c(=O)c34)[C@H]2C(C)(C)C1 [Griffipavixanthone] | 96.8 ± 1.3
C=CCc1ccc(O)c(-c2ccc(O)c(CC=C)c2)c1 [Honokiol] | 93.9 ± 2
C=CC(C)(C)c1c(OC)cc(O)c2c(=O)c3ccc(O)c(O)c3oc12 [Isocudraniaxanthone B] | 94.3 ± 0.9
O=C1C=CC(=O)c2c(O)cccc21 [Juglone, 5-hydroxy-1,4-naphthalenedione] | 43.5 ± 3.7
CCCC(=O)c1c(O)c(CC=C(C)C)c2oc(=O)cc(-c3ccccc3)c2c1O [Mammea A/AC] | 102.4 ± 1.7
O=C1C[C@@H](c2ccc(O)cc2)Oc2cc(O)cc(O)c21 [Naringenin] | 101.1 ± 1.2
COc1cccc2c1C(=O)c1nccc3cc4c(c-2c13)OCO4 [Oxostephanine, 15-methoxy-3,5-dioxa-11-azapentacyclo [10.7.1.0^2,6.0^8,20.0^14,19]icosa-(20),2(6),7,9,11,14(19),15,17-octaen-13-one] | 77.5 ± 0.9
O=C(CCc1ccc(O)cc1)c1c(O)cc(O)cc1O [Phloretin] | 101.8 ± 1.7
CC(=O)O[C@H]1C(=O)c2c(O)cc(O)cc2O[C@@H]1c1ccccc1 [Pinobanksine 3-O-acetate] | 100.3 ± 2.7
O=C1c2c(O)cc(O)cc2O[C@H](c2ccccc2)[C@H]1O [Pinobanksine] | 101.5 ± 0.8
CC(C)=CCOC(=O)/C=C/c1ccc(O)c(O)c1 [Prenyl caffeate] | 102.4 ± 0.8
O=c1c(O)c(-c2ccc(O)c(O)c2)oc2cc(O)cc(O)c12 [Quercetin] | 98.5 ± 1.4
O=C(O)C1=C[C@@H](O)[C@@H](O)[C@H](O)C1 [Shikimic acid] | 102.0 ± 6.2
c1cc2c(c3c1C[C@H]1c4cc5c(cc4CCN1C3)OCO5)OCO2 [Stylopine] | 101.4 ± 4.1
COc1cc(C(=O)O)cc(OC)c1O [Syringic acid] | 97.8 ± 3.1
CC1(C)C=Cc2c(cc3oc4ccc5c(c4c(=O)c3c2O)C=CC(C)(C)O5)O1 [Thwaitesixanthone] | 101.1 ± 2.1
CC1=CC(=O)C(C(C)C)=CC1=O [Thymoquinone] | 104.3 ± 2.2
COc1cc2c(cc1OC)[C@@H]1Cc3ccc(OC)c(OC)c3CN1CC2 [Tétrahydropalmatine] | 101.8 ± 4.8
O=c1ccc2ccc(O)cc2o1 [Umbelliferone] | 105.3 ± 2.3
COc1c(O)cc2oc3cc(O)c(CC=C(C)C)c(O)c3c(=O)c2c1CC=C(C)C [α-mangostin] | 67.5 ± 0.2
COc1cc2oc3cc(O)c(OC)c(CC=C(C)C)c3c(=O)c2c(O)c1CC=C(C)C [β-mangostin] | 100.3 ± 4.7

Same assay, conditions: read-out: IRE1 IC50

Compound | IC50 [µM]
O=C(/C=C/c1ccc(O)c(O)c1)OC/C=C/c1ccccc1 [Cinnamyl caffeate, [(E)-3-phenylprop-2-enyl] (E)-3-(3,4-dihydroxyphenyl)prop-2-enoate] | 21.6
